From PMC8624133, “10th Trends in Medical Mycology Held on 8 to 11 October 2021, Aberdeen, Scotland, Organized by the European Confederation of Medical Mycology (ECMM)” (Journal of Fungi, 2021)
≈ marks a conversion by molar mass, not a printed value. Non-standard residues stand in square brackets, D forms with d. Residues, ends and D or L forms follow the SMILES beside them. No end group written: not given here. pS = N[C@@H](COP(=O)(O)O)C(=O)O

Experiments:
C. auris [1] = assay: CLSI M27-A3 broth microdilution; format: cell-based, Candida auris; details: for GM MIC (≥90% reduction of visible growth): 256–16 μg/mL tested, duplicate at two times
C. krusei ATCC 6558 = assay: Broth microdilution of modified HDPs; format: cell-based, Candida krusei; details: 0.19 to 50 μg/mL tested
Excerpt: (§1) Materials & Methods: From the Scarabaeidae family transcriptome, 14 promising HDPs were identified. Subsequently, we designed new sequences modifying the net charge, hydrophobic angle and the general composition of amino acids, among other properties, in order to improve the HDPs antifungal activity. The in vitro antifungal susceptibility of the 14 modified HDPs against Candida krusei, ATCC 6558, Candida parapsilosis ATCC 22019, Candida glabrata ATCC 2001, Candida tropicalis ATCC 750, Cryptococcus neoformans H99 and Cryptococcus gattii H0058-I-2029 isolates were evaluated by broth microdilution, with a concentration ranging from 0.19 to 50 μg/mL for all peptides.

[2] = system: C. parapsilosis ATCC 22019; assay: Broth microdilution of modified HDPs; format: cell-based, Candida parapsilosis; details: 0.19 to 50 μg/mL tested
Excerpt: as §1

C. albicans SC5314 = assay: Broth microdilution of modified HDPs; format: cell-based, Candida albicans; details: 0.19 to 50 μg/mL tested
C. tropicalis ATCC 750 = assay: Broth microdilution of modified HDPs; format: cell-based, Candida tropicalis; details: 0.19 to 50 μg/mL tested
Excerpt: as §1

C. albicans ATCC 1453 = assay: Broth microdilution of modified HDPs; format: cell-based, Candida albicans; details: 0.19 to 50 μg/mL tested
C. glabrata ATCC 2001 = assay: Broth microdilution of modified HDPs; format: cell-based, Candida glabrata; details: 0.19 to 50 μg/mL tested
Excerpt: as §1

C. neoformans H99 = assay: Broth microdilution of modified HDPs; format: cell-based, Cryptococcus neoformans; details: 0.19 to 50 μg/mL tested
Excerpt: as §1

C. gattii H0058-I-2029 = assay: Broth microdilution of modified HDPs; format: cell-based, Cryptococcus gattii; details: 0.19 to 50 μg/mL tested
Excerpt: as §1

[3] = system: nine strains of Candida spp.; assay: CLSI M27-A3 broth microdilution; format: cell-based
[4] = system: P. insidiosum (strains CBS101555, P38, ATCC90586); assay: Radial growth assay; format: cell-based, Pythium insidiosum; details: for MIC: Pythium insidiosum; for reduction of growth compared to the control: colony radial growth
Description: These agriculture fungicides were initially evaluated for inhibitory effect against 3 phylogenetical distinct strains of P. insidiosum (i.e., strains CBS101555, P38, and ATCC90586) isolated from humans and animal with pythiosis in Thailand, Brazil, and United States. A radial growth assay was employed for the in vitro susceptibility analysis. […] The percentage of the colony’s radial growth of the treated organism was calculated in relation to the untreated control. The microscopic changes of the microorganisms were recorded.

C. auris [5] = assay: EUCAST EDef 7.3.1 MIC and checkerboard microdilution; format: cell-based, Candida auris
Description: Methods: We studied 22 C. auris isolates obtained from different clinical samples from the Hospital La Fe, Valencia, Spain (eight from blood culture, seven from oropharynx and seven from urine cultures). Candida parapsilosis ATCC 22019 and Candida krusei ATCC 6258 were used as quality controls. The minimum inhibitory concentration (MIC) was determined according to the European Committee on Antibiotic Susceptibility Testing (EUCAST) EDef 7.3.1 document. The interaction between citral and the rest of antifungal drugs was assessed by a checkerboard microdilution method. […] The in vitro interaction of the drug combinations was interpreted in terms of the fractional inhibitory concentration index (FICI) as follows: FICI < 1, synergistic; FICI equal to 1, additive; and FICI > 1, indifferent or antagonistic.

Compound	MIC (C. krusei ATCC 6558)	MIC [2]	MIC (C. albicans SC5314)	MIC (C. tropicalis ATCC 750)	MIC (C. albicans ATCC 1453)	MIC (C. glabrata ATCC 2001)	MIC (C. neoformans H99)	MIC (C. gattii H0058-I-2029)	further results
Cc1ccc(C(C)C)cc1O [carvacrol]	–	–	–	–	–	–	–	–	GM MIC (≥90% reduction of visible growth) (C. auris [1]): 215.3 µg/mL
GSKRWRKFEKRVKKIFEETKEALPVVQGVAGVAGAVGRR-NH2 [ConCec]	0.78 µg/mL	0.39 µg/mL	>50 µg/mL	25 µg/mL	>50 µg/mL	1.56 µg/mL	25 µg/mL	1.56 µg/mL	–
C=C(C)[C@H]1CC=C(C)CC1 [D-limonene]	–	–	–	–	–	–	–	–	MICs range (C. auris [1]): 16 to 128 µg/mL; GM MIC (≥90% reduction of visible growth) (C. auris [1]): 20.39 µg/mL; selectivity index (SI) ([3]; C. glabrata LMDM 34 vs HaCat): 6; selectivity index (SI) ([3]; C. methapsilosis MUM 1512 vs HaCat): 50; selectivity index (SI) ([3]; C. orthopsilosis MUM 1713 vs HaCat): 25; selectivity index (SI) ([3]; C. tropicalis ATCC 200956 vs HaCat): 12
CSC1=N[C@@](C)(c2ccccc2)C(=O)N1Nc1ccccc1 [fenamidone]	–	–	–	–	–	–	–	–	MIC [4]: 64 µg/mL (≈ 206 µM); reduction of growth compared to the control [4]: at least 70%
O=C(NCc1ncc(C(F)(F)F)cc1Cl)c1c(Cl)cccc1Cl [Fluopicolide, fluopicolide]	–	–	–	–	–	–	–	–	reduction of growth compared to the control [4]: at least 70%; MICs ([4]; tested at 0.25–[…], 3 biological replicates): 8 µg/mL
RSKKWRKIEKRVKKIFEKTKEA-NH2 [sat122]	1.56 µg/mL	0.39 µg/mL	>50 µg/mL	50 µg/mL	>50 µg/mL	3.12 µg/mL	50 µg/mL	3.12 µg/mL	–
Cc1ccc(-c2c(Cl)nc(C#N)n2S(=O)(=O)N(C)C)cc1 [cyazofamid]	–	–	–	–	–	–	–	–	MIC [4]: 16 µg/mL (≈ 49.3 µM); reduction of growth compared to the control [4]: at least 70%
KSKRWRKFEKRVKKIFEKTKEAK-NH2 [Act2]	0.78 µg/mL	1.56 µg/mL	>50 µg/mL	50 µg/mL	>50 µg/mL	1.56 µg/mL	25 µg/mL	3.12 µg/mL	–
KSKRWRKFEKRVKKIFEKFKEAK-NH2 [Act2.2]	0.78 µg/mL	1.56 µg/mL	>50 µg/mL	12.5 µg/mL	>50 µg/mL	1.56 µg/mL	12.5 µg/mL	1.56 µg/mL	–
COc1ccc(C(=CC(=O)N2CCOCC2)c2ccc(Cl)cc2)cc1OC [dimethomorph]	–	–	–	–	–	–	–	–	inhibition [4]: no significant inhibition
CC(C)=CCCC(C)=CC=O (mixture of isomers) [citral]	–	–	–	–	–	–	–	–	MIC of citral in combination with anidulafungin (C. auris [5]; 21 of the 22 isolates): 3 to 128 µg/mL; MIC (C. auris [5]; Candidozyma auris, 22 clinical isolates): > 1020 µg/mL; isolates with additive effect (FICI equal to 1) (C. auris [5]; citral + fluconazole): eight; isolates with synergistic effect (FICI < 1) (C. auris [5]; citral + fluconazole): three; isolates with additive effect (FICI equal to 1) (C. auris [5]; citral + isavuconazole): seven; isolates with synergistic effect (FICI < 1) (C. auris [5]; citral + isavuconazole): seven
GSKRWRKFEKRVKKIFEHTKEAK-NH2 [Act8]	0.78 µg/mL	1.56 µg/mL	>50 µg/mL	>50 µg/mL	>50 µg/mL	3.12 µg/mL	50 µg/mL	3.12 µg/mL	–
Cc1ccc(C(C)C)cc1 [p-cymene]	–	–	–	–	–	–	–	–	GM MIC (≥90% reduction of visible growth) (C. auris [1]): 215.3 µg/mL
GSKRWRKFEKRVKKVFEHTKEA-NH2 [ox322]	1.56 µg/mL	1.56 µg/mL	>50 µg/mL	>50 µg/mL	>50 µg/mL	3.12 µg/mL	50 µg/mL	3.12 µg/mL	–
GSKRWRKFEKRVKKIFEKTKEAK-NH2 [Act6]	0.78 µg/mL	1.56 µg/mL	>50 µg/mL	>50 µg/mL	>50 µg/mL	3.12 µg/mL	50 µg/mL	3.12 µg/mL	–
KSKRWRKFEKRVKKIFEKTKEA-NH2 [Act1]	1.56 µg/mL	3.12 µg/mL	>50 µg/mL	50 µg/mL	>50 µg/mL	3.12 µg/mL	50 µg/mL	6.25 µg/mL	–
GSKRWRKFEKRVKK-NH2 [domcec]	3.12 µg/mL	3.12 µg/mL	>50 µg/mL	>50 µg/mL	>50 µg/mL	6.25 µg/mL	>50 µg/mL	>50 µg/mL	–
Cc1ccc(C(C)C)c(O)c1 [thymol]	–	–	–	–	–	–	–	–	GM MIC (≥90% reduction of visible growth) (C. auris [1]): 104 µg/mL
Cc1cc(C(F)(F)F)nn1CC(=O)N1CCC(c2nc(C3=NOC(c4c(F)cccc4F)C3)cs2)CC1 (stereo not drawn) [oxathiapiprolin]	–	–	–	–	–	–	–	–	inhibition [4]: no significant inhibition
KSKRWRKFEKRVKKIFEHTKEAK-NH2 [Act4]	0.78 µg/mL	1.56 µg/mL	>50 µg/mL	50 µg/mL	>50 µg/mL	3.12 µg/mL	50 µg/mL	1.56 µg/mL	–
GSKRWRKFEKRVKKIFEHTKEA-NH2 [Act7]	0.78 µg/mL	1.56 µg/mL	>50 µg/mL	>50 µg/mL	>50 µg/mL	3.12 µg/mL	50 µg/mL	3.12 µg/mL	–
GSKRWRKFEKRVKKIFEKTKEA-NH2 [Act5]	1.56 µg/mL	3.12 µg/mL	25 to 50 µg/mL	>50 µg/mL	>50 µg/mL	3.12 µg/mL	25 µg/mL	1.56 µg/mL	–
KSKRWRKFEKRVKKIFEHTKEA-NH2 [Act3]	0.78 µg/mL	3.12 µg/mL	>50 µg/mL	>50 µg/mL	>50 µg/mL	1.56 µg/mL	50 µg/mL	3.12 µg/mL	–
CC[C@H](C)[C@H](NC(=O)[C@H](CCCCN)NC(=O)[C@H](CCCCN)NC(=O)[C@@H](NC(=O)[C@H](CCCNC(=N)N)NC(=O)[C@H](CCCCN)NC(=O)[C@H](CCC(=O)O)NC(=O)[C@H](Cc1ccccc1)NC(=O)[C@H](CCCCN)NC(=O)[C@H](CCCNC(=N)N)NC(=O)[C@H](Cc1c[nH]c2ccccc12)NC(=O)[C@H](CCCNC(=N)N)NC(=O)[C@H](CCCCN)NC(=O)[C@H](COP(=O)(O)O)NC(=O)[C@@H](N)CCCCN)C(C)C)C(=O)N[C@@H](Cc1ccccc1)C(=O)N[C@@H](CCC(=O)O)C(=O)N[C@@H](CCCCN)C(=O)N[C@H](C(=O)N[C@@H](CCCCN)C(=O)N[C@@H](CCC(=O)O)C(=O)N[C@@H](C)C(=O)N[C@@H](CCCCN)C(N)=O)[C@@H](C)O [Act2.1] (H-K[pS]KRWRKFEKRVKKIFEKTKEAK-NH2)	0.78 µg/mL (≈ 0.255 µM)	1.56 µg/mL (≈ 0.51 µM)	>50 µg/mL	>50 µg/mL	>50 µg/mL	1.56 µg/mL (≈ 0.51 µM)	>50 µg/mL	1.56 µg/mL (≈ 0.51 µM)	–
